The results in this text go back to patent US20220033407A1, “N-(pyridin-2-ylsulfonyl)cyclopropanecarboxamide Derivatives and their Use in the Treatment of Disease” (NOVARTIS AG, priority 2018, published 2022).

The assay addresses T1, delF508-CFTR-HRP (Homo sapiens, UniProt P13569, DEL508-508).
T1 construct: expressed in transfected cells
In words: Measurement of delF508-CFTR-HRP surface expression in CFBE41o- cells (HRP luminescence).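 For DelF508-CFTR-HRP Amax %: percent efficacy relative to a reference CFTR corrector compound.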 Format: cell-based. Conditions: for Emax: CFBE41o-, read-out: DelF508-CFTR-HRP Amax %; for EC50: mean of at least two replicates. The source says: Measurement of delF508-CFTR-HRP Surface Expression in CFBE41o-Cells
This assay quantifies the cell surface expressions of the mutant CFTR channel using an extracellular HRP tag.
A cellular assay was developed to measure surface expression of horseradish peroxidase (HRP) tagged delF508-CFTR in the human bronchial epithelial immortalized CFBE41o-cell line (Phuan, P. W., et al, (2014) Molecular Pharmacology 86:42-51). Specifically, the HRP sequence was inserted into the fourth extracellular loop of delF508-CFTR and stably expressed in CFBE41o-cells. Cells were seeded in 384 well plate at a density of 5000 cells/well and incubated at 37° C. for 12 to 24 hours in medium (Gibco MEM #11095, 10% FBS, 10 mM HEPES, […], 200 μg/mL G418, 3 μg/mL Puromycin). The delF508-CFTR-HRP expression was induced with 500 ng/mL doxycycline (Sigma D-9891, dissolved in H2O and sterile filtered) in medium and the cells were incubated at 37° C. for 48 h. Old medium was removed and fresh medium was added containing 500 ng/mL doxycycline and unknown test compound at required test concentration in DMSO, not exceeding 0.5% final DMSO concentration. The highest concentration tested was 10 μM with a 10-point concentration response curve using a 3-fold dilution. After addition of compounds, the cells were incubated for 24 h at 37° C. On the final day, cells were washed four times in PBS containing 1 mM MgCl2 and 0.1 mM CaCl2. HRP-Substrate (SuperSignal ELISA Pico, Fisher #37069) 20 μl/well was added and the luminescence signal was determined (Viewlux, Perkin Elmer). Light was emitted upon addition of exogenous HRP-Substrate only when delF508-CFTR-HRP reached the cell surface and the HRP tag was accessible to the HRP-Substrate (note: HRP-Substrate cannot cross the lipid bilayer to reach delF508-CFTR-HRP misfolded within the cell).
The median activity for the lowest concentration of the compounds on each assay plate was calculated and this value was used to normalize the signal for each well on the respective plate. Three replicates at each concentrations for every compound were run to determine one EC50. The median value was determined and used to calculate compound activities as described below. Effective half maximal values (EC50) were calculated for each compound by performing logistic regression on measured dose-response data points using the equation: […]
where “Y” is the observed activity, “Bottom” is the lowest observed value, “Top” is the highest observed value, and the “Hill coefficient” gives the largest absolute value of the slope. The curve fitting is carried out by a curve fitting program implemented at GNF using Matlab (Mathworks). The dose response curves also were used to calculate Fold Change (FC) using the equation: […]
Compound efficacy relative to the reference compound 3-(6-(1-(2,2-difluorobenzo[d][1,3]dioxol-5-yl)cyclopropane-1-carboxamido)-3-methylpyridin-2-yl)benzoic acid was determined using the following formula: […]

T1 sequence (P13569 with tags, fused parts or gaps DEL508-508): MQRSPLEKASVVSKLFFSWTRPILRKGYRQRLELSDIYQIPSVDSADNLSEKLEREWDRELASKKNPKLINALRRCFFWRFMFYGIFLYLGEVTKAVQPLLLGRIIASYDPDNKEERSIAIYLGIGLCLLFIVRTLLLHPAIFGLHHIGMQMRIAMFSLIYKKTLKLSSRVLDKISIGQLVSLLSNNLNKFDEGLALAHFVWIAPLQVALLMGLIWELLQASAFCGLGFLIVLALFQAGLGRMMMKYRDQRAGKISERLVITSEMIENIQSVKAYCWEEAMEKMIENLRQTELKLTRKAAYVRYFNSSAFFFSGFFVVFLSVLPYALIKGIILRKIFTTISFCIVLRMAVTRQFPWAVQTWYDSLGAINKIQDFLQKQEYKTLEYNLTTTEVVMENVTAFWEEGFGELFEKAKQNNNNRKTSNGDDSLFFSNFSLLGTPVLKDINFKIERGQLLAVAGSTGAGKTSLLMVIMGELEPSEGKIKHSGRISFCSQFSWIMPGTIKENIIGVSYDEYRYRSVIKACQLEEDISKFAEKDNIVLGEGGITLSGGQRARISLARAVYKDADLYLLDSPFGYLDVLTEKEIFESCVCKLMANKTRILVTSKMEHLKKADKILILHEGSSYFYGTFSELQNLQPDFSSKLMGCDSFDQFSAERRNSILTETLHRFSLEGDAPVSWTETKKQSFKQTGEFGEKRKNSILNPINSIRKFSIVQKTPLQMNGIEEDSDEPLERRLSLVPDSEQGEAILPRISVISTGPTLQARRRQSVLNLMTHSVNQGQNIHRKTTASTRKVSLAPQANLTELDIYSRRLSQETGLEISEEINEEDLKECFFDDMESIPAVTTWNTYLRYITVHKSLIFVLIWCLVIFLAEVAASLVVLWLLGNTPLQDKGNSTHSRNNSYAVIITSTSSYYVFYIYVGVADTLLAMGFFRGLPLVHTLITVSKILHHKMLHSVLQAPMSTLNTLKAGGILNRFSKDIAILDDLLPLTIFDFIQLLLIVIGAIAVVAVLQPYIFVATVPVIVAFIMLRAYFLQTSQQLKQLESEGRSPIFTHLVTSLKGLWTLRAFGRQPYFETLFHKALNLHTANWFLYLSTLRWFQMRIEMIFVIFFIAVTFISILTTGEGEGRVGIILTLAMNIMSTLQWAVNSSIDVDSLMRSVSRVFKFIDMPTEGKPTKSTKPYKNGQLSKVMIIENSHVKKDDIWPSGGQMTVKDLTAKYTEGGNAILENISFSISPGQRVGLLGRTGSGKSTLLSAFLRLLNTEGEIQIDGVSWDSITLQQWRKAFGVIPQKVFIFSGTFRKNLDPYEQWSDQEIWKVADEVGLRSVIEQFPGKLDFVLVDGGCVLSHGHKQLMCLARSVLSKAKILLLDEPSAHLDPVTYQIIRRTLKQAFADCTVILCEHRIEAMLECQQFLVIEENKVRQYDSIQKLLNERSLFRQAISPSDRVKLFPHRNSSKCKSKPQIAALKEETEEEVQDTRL

Take `O=C(NS(=O)(=O)c1cccc(N2CC[C@H](O)C2)n1)C1(Oc2cc(Cl)ccc2N2CC3(CCOCC3)C2)CC1` [Example 9-36, (S)-1-(5-Chloro-2-(7-oxa-2-azaspiro[3.5]nonan-2-yl)phenoxy)-N-((6-(3-hydroxypyrrolidin-1-yl)pyridin-2-yl)sulfonyl)cyclopropanecarboxamide]: the Emax came out at 52% and the midpoint of the response, the EC50, lay at 1690 nM.

`O=C(NS(=O)(=O)c1cccc(N2CC3(CCO3)C2)n1)C1(Oc2cc(Cl)ccc2C2CC3(CCC3)C2)CC1` [Example 7-5, N-((6-(1-oxa-6-azaspiro[3.3]heptan-6-yl)pyridin-2-yl)sulfonyl)-1-(5-chloro-2-(spiro[3.3]heptan-2-yl)phenoxy)cyclopropanecarboxamide]: the Emax was determined as 493% and the EC50 amounted to 880 nM.

`CC1(C)CCN(c2ccc(Cl)cc2OC2(C(=O)NS(=O)(=O)c3cccc(N4CCC(C)(O)C4)n3)CC2)CC1` (single isomer, unassigned) [Example 9-39-1, 1-(5-Chloro-2-(4,4-dimethylpiperidin-1-yl)phenoxy)-N-((6-(3-hydroxy-3-methylpyrrolidin-1-yl)pyridin-2-yl)sulfonyl)cyclopropane-1-carboxamide]: the “DelF508-CFTR-HRP Amax %” value turned out to be 726.4% and the EC50 worked out at 570 nM.

With `CC1(C)CCN(c2ccc(Cl)cc2OC2(C(=O)NS(=O)(=O)c3cccc(N4CCCC(C)(O)C4)n3)CC2)CC1` (single isomer, unassigned) [Example 9-43-1, 1-(5-Chloro-2-(4,4-dimethylpiperidin-1-yl)phenoxy)-N-((6-(3-hydroxy-3-methylpiperidin-1-yl)pyridin-2-yl)sulfonyl)cyclopropane-1-carboxamide], the “DelF508-CFTR-HRP Amax %” value came out at 545.9% and the EC50 stood at 1170 nM.

As to `CC1(O)CCN(c2cccc(S(=O)(=O)NC(=O)C3(Oc4cc(Cl)ccc4N4CCC(C(C)(C)C)CC4)CC3)n2)CC1` [Example 9-35, 1-(2-(4-(Tert-butyl)piperidin-1-yl)-5-chlorophenoxy)-N-((6-(4-hydroxy-4-methylpiperidin-1-yl)pyridin-2-yl)sulfonyl)cyclopropanecarboxamide], the Emax worked out at 140% and the EC50 was 340 nM.

Regarding `O=C(NS(=O)(=O)c1cccc(N2CC[C@H](O)C2)n1)C1(Oc2cc(Cl)ccc2N2CC3(COC3)C2)CC1` [Example 9-23, (S)-1-(5-Chloro-2-(2-oxa-6-azaspiro[3.3]heptan-6-yl)phenoxy)-N-((6-(3-hydroxypyrrolidin-1-yl)pyridin-2-yl)sulfonyl)cyclopropanecarboxamide], the Emax was found to be 13.7% and the EC50 worked out at 10000 nM.

As for `CC(C)[C@H](CO)Nc1cccc(S(=O)(=O)NC(=O)C2(Oc3cc(Cl)ccc3N3CCC(C)(C)CC3)CC2)n1` [Example 9-38, (R)-1-(5-Chloro-2-(4,4-dimethylpiperidin-1-yl)phenoxy)-N-((6-((1-hydroxy-3-methylbutan-2-yl)amino)pyridin-2-yl)sulfonyl)cyclopropane-1-carboxamide], the Emax worked out at 789% and the EC50 turned out to be 1470 nM.

`O=C(NS(=O)(=O)c1cccc(N2CC[C@H](O)C2)n1)C1(Oc2cc(Cl)ccc2N2CCCC3(CCCC3)C2)CC1` [Example 9-15, (S)-1-(5-Chloro-2-(7-azaspiro[4.5]decan-7-yl)phenoxy)-N-((6-(3-hydroxypyrrolidin-1-yl)pyridin-2-yl)sulfonyl)cyclopropanecarboxamide]: the Emax was found to be 477% and the EC50 came out at 290 nM.

In the case of `Cc1ccc(C)c(OC2(C(=O)NS(=O)(=O)c3cccc(NC[C@@H](C)O)n3)CCCC2)c1` [Example 4-4, (R)-1-(2,5-dimethylphenoxy)-N-((6-((2-hydroxypropyl)amino)pyridin-2-yl)sulfonyl)cyclopentane-1-carboxamide], the Emax stood at 84% and the EC50 was found to be 4770 nM.

As to `Cc1ccc(C2CC2C(F)(F)F)c(OC2(C(=O)NS(=O)(=O)c3cccc(N)n3)CC2)c1` (single isomer, unassigned) [Example 1-3-2, N-((6-aminopyridin-2-yl)sulfonyl)-1-(5-methyl-2-(2-(trifluoromethyl)cyclopropyl)phenoxy)cyclopropane-1-carboxamide], the “DelF508-CFTR-HRP Amax %” value worked out at 260% and the EC50 stood at 2990 nM.

For the molecule `CC1(C)CCN(c2ccc(C(F)(F)F)cc2OC2(C(=O)NS(=O)(=O)c3cccc(N4CC[C@H](O)C4)n3)CC2)CC1` [Example 9-26, (S)-1-(2-(4,4-Dimethylpiperidin-1-yl)-5-(trifluoromethyl)phenoxy)-N-((6-(3-hydroxypyrrolidin-1-yl)pyridin-2-yl)sulfonyl)cyclopropanecarboxamide], the Emax came out at 329% and the EC50 worked out at 1840 nM.

Regarding `Cc1ccc(C2CC2C(F)(F)F)c(OC2(C(=O)NS(=O)(=O)c3cccc(N)n3)CC2)c1` (single isomer, unassigned) [Example 1-3-1, N-((6-aminopyridin-2-yl)sulfonyl)-1-(5-methyl-2-(2-(trifluoromethyl)cyclopropyl)phenoxy)cyclopropane-1-carboxamide], the “DelF508-CFTR-HRP Amax %” value was 65% and the midpoint of the response, the EC50, lay at 4180 nM.

In the case of `CC1(C)CN(c2ccc(Cl)cc2OC2(C(=O)NS(=O)(=O)c3cccc(N4CC[C@H](O)C4)n3)CC2)C1` [Example 9-21, (S)-1-(5-Chloro-2-(3,3-dimethylazetidin-1-yl)phenoxy)-N-((6-(3-hydroxypyrrolidin-1-yl)pyridin-2-yl)sulfonyl)cyclopropanecarboxamide], the Emax was determined as 720% and the EC50 is 2280 nM.

For `O=C(NS(=O)(=O)c1cccc(N2CC3CCC(C2)O3)n1)C1(Oc2cc(Cl)ccc2C2CC3(CCC3)C2)CC1` [Example 7-16, N-((6-(8-Oxa-3-azabicyclo[3.2.1]octan-3-yl)pyridin-2-yl)sulfonyl)-1-(5-chloro-2-(spiro[3.3]heptan-2-yl)phenoxy)cyclopropane-1-carboxamide], the Emax amounted to 381% and the midpoint of the response, the EC50, lay at 1240 nM.

As for `CC1(C)CCN(c2ccc(Cl)cc2OC2(C(=O)NS(=O)(=O)c3cccc(N4CCC(C)(O)C4)n3)CC2)CC1` (single isomer, unassigned) [Example 9-39-2, 1-(5-Chloro-2-(4,4-dimethylpiperidin-1-yl)phenoxy)-N-((6-(3-hydroxy-3-methylpyrrolidin-1-yl)pyridin-2-yl)sulfonyl)cyclopropane-1-carboxamide], the “DelF508-CFTR-HRP Amax %” value is given as 493.9% and the EC50 was 840 nM.

Consider `C[C@@]1(O)CCN(c2cccc(S(=O)(=O)NC(=O)C3(Oc4cc(Cl)ccc4C4CC5(CCC5)C4)CC3)n2)C1` (single isomer, unassigned) [Example 7-2-2], for which the Emax was 382% and it took 880 nM to reach a half-maximal effect (EC50).

For `Cc1ccc(OC2CCCC2)c(OC2(C(=O)NS(=O)(=O)c3cccc(N4CC[C@H](O)C4)n3)CC2)c1` [Example 6-13, (S)-1-(2-(cyclopentyloxy)-5-methylphenoxy)-N-((6-(3-hydroxypyrrolidin-1-yl)pyridin-2-yl)sulfonyl)cyclopropanecarboxamide], the Emax amounted to 285% and it took 2550 nM to reach a half-maximal effect (EC50).

Regarding `Cc1ccc(OC2CCC(C(C)(C)C)CC2)c(OC2(C(=O)NS(=O)(=O)c3cccc(N4CCC(O)(C(F)(F)F)CC4)n3)CC2)c1` (stereo not shown) [Example 6-8, 1-(2-((4-(tert-butyl)cyclohexyl)oxy)-5-methylphenoxy)-N-((6-(4-hydroxy-4-(trifluoromethyl)piperidin-1-yl)pyridin-2-yl)sulfonyl)cyclopropanecarboxamide], the Emax turned out to be 428% and the EC50 is 210 nM.

As for `O=C(NS(=O)(=O)c1cccc(N2CC[C@H](O)C2)n1)C1(Oc2cc(Cl)ccc2N2CC3(CCCCO3)C2)CC1` [Example 9-8, (S)-1-(5-Chloro-2-(5-oxa-2-azaspiro[3.5]nonan-2-yl)phenoxy)-N-((6-(3-hydroxypyrrolidin-1-yl)pyridin-2-yl)sulfonyl)cyclopropanecarboxamide], the Emax came to 204% and the EC50 stood at 4040 nM.

`Cc1ccc(C2CCC(C)(C)OC2)c(OC2(C(=O)NS(=O)(=O)c3cccc(N4CC[C@H](O)C4)n3)CC2)c1` (single isomer, unassigned) [Example 4-24-1]: the “DelF508-CFTR-HRP Amax %” value was 295% and a half-maximal response (EC50) required 3620 nM.
